Experimental data reported in patent US4791215A, “Derivatives of glutamic acid and aspartic acid” (priority 1984, dated 1988).
Where “and” joins values, the source holds several entries; their conditions need not be identical. Equal values may be shown once.

Columns and labels:
[1] = tested on: tolerance induced by morphine; test: Antagonism to development of tolerance to repeated morphine HCl, Tail Flick Test (Experiment 5); details: compound 10 mg/kg + morphine 5 mg/kg i.p.
[2] = tested on: enkephalinamide (DALA) analgesia; test: Potentiation of DALA (enkephalinamide) analgesia, i.c.v., Tail Flick Test (Experiment 4); format: in vivo, rats; parameters: scale not given here
Text: Experiment No. 4: Potentiation of the analgesic activities of enkephalins induced by some of the compounds of the invention. […]

biliary flow = test: Biliary flow (choleretic activity); format: in vivo, rat
Protocol: The following experiment was carried out: a cannula was inserted in the bile duct of a rat anaesthetised with urethane, together with a small needle connected to a polythene tube, and the bile liquid was thus collected. The collection was carried out for one hour before the intravenous administration of the tested compounds and for a further two hours after administration, the samples collected at 30 minute intervals being weighed.
In order to prevent possible dehydration of the animals, 0.5 ml of physiological solution was administered at 30 minute intervals up to a total of 3 ml.

[3] = tested on: endogenous opiates analgesia; test: Analgesic activity of endogenous opiates released by transcutaneous shock, Tail Flick Test (Experiment 3); format: in vivo, rats
Outline: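 Non-fasted male rats (~200 g) stressed with 60 Hz-2.5 mA front-leg current, 1 s pulses every 5 s for 20 min, to release endogenous opiates. Analgesia measured by tail flick test.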

[4] = tested on: activity of analgesic drugs; test: Hot-plate test, potentiation of analgesic drugs (Experiment 2); format: in vivo, rats
Outline: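 Male rats of about 150 g, not fasted, five per group, were placed on a plate held at 55°±1° C. Licking or jumping latency was recorded before and at 10–90 min after dosing, with a 30 s cut-off. A positive response meant at least a doubling of reaction time, reported as positives/treated.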

[5] = tested on: CCK-8 induced contraction of guinea pig gall bladder; test: Anti-CCK-8 activity on gall bladders in situ; format: in vivo; details: for percentage inhibition of contracting effect of CCK-8: single experiments
Protocol: In order to confirm the evidence of the studies in vitro several of the more interesting compounds were tested in vivo on guinea pig gall baldders in situ.
The method used is that described by Ljungberg (Svensk. Farm. Tidskr. 68, 351-354, 1964).
Guinea pigs having a weight of about 400 g, anaesthetised with urethane, were used; the substances under examination were administered intraveneously into the jugular vein.
The responses of the gall bladders to the substances under test were detected by means of a force transducer and recorded by means of a microdynamometer. The optimum contracting dose was chosen as 10 ng/kg of CCK-8. The antagonist compounds tested were administered in increasing doses so as to enable the calculation of an ED50 value, that is in the dose (in mg/kg i.v.) capable of inhibiting 50% of the contracting effect of 10 ng/kg i.v. of CCK-8.
The results obtained are given in Table 7 below, which gives the doses used and the effects obtained expressed as a percentage inhibition of the contracting effect of CCK-8 as well as the ED50 found.

SMILES: CCCN(CCC)C(=O)C(CCC(=O)O)NC(=O)c1cccc(C#N)c1 (centres unmarked) [Compound C-20]
- percentage variation in latency time (Effect %) ([1]; 24 h): 53.36%
- percentage variation in latency time (Effect %) ([1]; 48 h): 48.17%
- percentage variation in latency time (Effect %) ([1]; 72 h): 53.67%
- percentage variation in latency time (Effect %) ([1]; 96 h): 31.56%
- percentage variation in latency time (Effect %) ([1]; 120 h): 41.67%
- percentage variation in latency time (Effect %) ([1]; 144 h): 14.48%
- percentage variation in latency time (Effect %) ([1]; 168 h): 13.75%
- percentage variation in latency time (Effect %) ([1]; time 0): 72.15%
- analgesic activity, Tail Flick ([2]; DALA 10 + compound 0.003 μg/kg ICV, 10'): 5.7
- analgesic activity, Tail Flick ([2]; DALA 10 + compound 0.003 μg/kg ICV, 20'): 44.6
- analgesic activity, Tail Flick ([2]; DALA 10 + compound 0.003 μg/kg ICV, 30'): 32.3
- analgesic activity, Tail Flick ([2]; DALA 10 + compound 0.003 μg/kg ICV, 45'): 30.1
- analgesic activity, Tail Flick ([2]; DALA 10 + compound 0.003 μg/kg ICV, 60'): 24.5
- analgesic activity, Tail Flick ([2]; DALA 10 + compound 0.003 μg/kg ICV, 90'): 72.
- MEAN analgesic activity, Tail Flick ([2]; DALA 10 + compound 0.003 μg/kg ICV): 24.1
- analgesic activity, Tail Flick ([2]; DALA 10 + compound 0.01 μg/kg ICV, 10'): 16.5
- analgesic activity, Tail Flick ([2]; DALA 10 + compound 0.01 μg/kg ICV, 20'): 62.5
- analgesic activity, Tail Flick ([2]; DALA 10 + compound 0.01 μg/kg ICV, 30'): 64.1
- analgesic activity, Tail Flick ([2]; DALA 10 + compound 0.01 μg/kg ICV, 45'): 45.4
- analgesic activity, Tail Flick ([2]; DALA 10 + compound 0.01 μg/kg ICV, 60'): 45.3
- analgesic activity, Tail Flick ([2]; DALA 10 + compound 0.01 μg/kg ICV, 90'): 16.3
- MEAN analgesic activity, Tail Flick ([2]; DALA 10 + compound 0.01 μg/kg ICV): 41.7
- % increase in biliary flow with respect to controls (biliary flow; 12.5 mg/kg i.v.): +48.5%
- % increase in biliary flow with respect to controls (biliary flow; 25 mg/kg i.v.): +63.9%
- % increase in biliary flow with respect to controls (biliary flow; 50 mg/kg i.v.): +108.0%
- ED50 (biliary flow; Rattus norvegicus, iv, average over 2 hours, read-out: ED50 (dose causing 50% increase in biliary flow)): 19.4 mg/kg
- average latency, Tail Flick ([3]; compound 1 mg/kg iv + stress, 5'): 7.5 ± 0.3 s
- average latency, Tail Flick ([3]; compound 1 mg/kg iv + stress, 10'): 5.34 ± 0.46 s
- average latency, Tail Flick ([3]; compound 1 mg/kg iv + stress, 15'): 3.88 ± 0.29 s
- average latency, Tail Flick ([3]; compound 3 mg/kg iv + stress, 5'): 8.48 ± 0.62 s
- average latency, Tail Flick ([3]; compound 3 mg/kg iv + stress, 10'): 6.42 ± 0.21 s
- average latency, Tail Flick ([3]; compound 3 mg/kg iv + stress, 15'): 4.98 ± 0.36 s
- TOTAL positives ([4]; ASA 100 + compound 5 mg/kg i.p.): 12 x/30
- positive responses over number treated ([4]; ASA 100 + compound 5 mg/kg i.p., 10'): 2/5
- positive responses over number treated ([4]; ASA 100 + compound 5 mg/kg i.p., 20'): 2/5
- positive responses over number treated ([4]; ASA 100 + compound 5 mg/kg i.p., 30'): 2/5
- positive responses over number treated ([4]; ASA 100 + compound 5 mg/kg i.p., 45'): 3/5
- positive responses over number treated ([4]; ASA 100 + compound 5 mg/kg i.p., 60'): 3/5
- positive responses over number treated ([4]; ASA 100 + compound 5 mg/kg i.p., 90'): 0/5
- TOTAL positives ([4]; ASA 100 + compound 20 mg/kg i.p.): 17 x/30
- positive responses over number treated ([4]; ASA 100 + compound 20 mg/kg i.p., 10'): 1/5
- positive responses over number treated ([4]; ASA 100 + compound 20 mg/kg i.p., 20'): 3/5
- positive responses over number treated ([4]; ASA 100 + compound 20 mg/kg i.p., 30'): 3/5
- positive responses over number treated ([4]; ASA 100 + compound 20 mg/kg i.p., 45'): 3/5
- positive responses over number treated ([4]; ASA 100 + compound 20 mg/kg i.p., 60'): 4/5
- positive responses over number treated ([4]; ASA 100 + compound 20 mg/kg i.p., 90'): 3/5
- TOTAL positives ([4]; ASA 100 + compound 50 mg/kg i.p.): 22 x/30
- positive responses over number treated ([4]; ASA 100 + compound 50 mg/kg i.p., 10'): 3/5
- positive responses over number treated ([4]; ASA 100 + compound 50 mg/kg i.p., 20'): 2/5
- positive responses over number treated ([4]; ASA 100 + compound 50 mg/kg i.p., 30'): 5/5
- positive responses over number treated ([4]; ASA 100 + compound 50 mg/kg i.p., 45'): 5/5
- positive responses over number treated ([4]; ASA 100 + compound 50 mg/kg i.p., 60'): 4/5
- positive responses over number treated ([4]; ASA 100 + compound 50 mg/kg i.p., 90'): 3/5
- effect on analgesic activity of propoxyphene ([4]; compound 3 mg/kg i.p.): can double the analgesic activity of propoxyphene
- TOTAL positives ([4]; propoxyphene 15 + compound 1 mg/kg i.p.): 16 x/30
- positive responses over number treated ([4]; propoxyphene 15 + compound 1 mg/kg i.p., 10'): 2/5
- positive responses over number treated ([4]; propoxyphene 15 + compound 1 mg/kg i.p., 20'): 2/5
- positive responses over number treated ([4]; propoxyphene 15 + compound 1 mg/kg i.p., 30'): 3/5
- positive responses over number treated ([4]; propoxyphene 15 + compound 1 mg/kg i.p., 45'): 3/5
- positive responses over number treated ([4]; propoxyphene 15 + compound 1 mg/kg i.p., 60'): 3/5
- positive responses over number treated ([4]; propoxyphene 15 + compound 1 mg/kg i.p., 90'): 3/5
- TOTAL positives ([4]; propoxyphene 15 + compound 3 mg/kg i.p.): 25 x/30
- positive responses over number treated ([4]; propoxyphene 15 + compound 3 mg/kg i.p., 10'): 3/5
- positive responses over number treated ([4]; propoxyphene 15 + compound 3 mg/kg i.p., 20'): 5/5
- positive responses over number treated ([4]; propoxyphene 15 + compound 3 mg/kg i.p., 30'): 4/5
- positive responses over number treated ([4]; propoxyphene 15 + compound 3 mg/kg i.p., 45'): 5/5
- positive responses over number treated ([4]; propoxyphene 15 + compound 3 mg/kg i.p., 60'): 4/5
- positive responses over number treated ([4]; propoxyphene 15 + compound 3 mg/kg i.p., 90'): 4/5
- TOTAL positives ([4]; propoxyphene 15 + compound 10 mg/kg i.p.): 27 x/30
- positive responses over number treated ([4]; propoxyphene 15 + compound 10 mg/kg i.p., 10'): 4/5
- positive responses over number treated ([4]; propoxyphene 15 + compound 10 mg/kg i.p., 20'): 5/5
- positive responses over number treated ([4]; propoxyphene 15 + compound 10 mg/kg i.p., 30'): 5/5
- positive responses over number treated ([4]; propoxyphene 15 + compound 10 mg/kg i.p., 45'): 5/5
- positive responses over number treated ([4]; propoxyphene 15 + compound 10 mg/kg i.p., 60'): 5/5
- positive responses over number treated ([4]; propoxyphene 15 + compound 10 mg/kg i.p., 90'): 3/5
- dose of maximum effect (propoxyphene potentiation) ([4]; with propoxyphene): 10 mg/kg i.p.

SMILES: CCCCCN(CCCCC)C(=O)C(CCC(=O)O)NC(=O)c1ccc(Cl)c(Cl)c1 (centres unmarked) [Compound C-7]
- percentage inhibition of contracting effect of CCK-8 ([5]; 0.003 mg/kg i.v.): -10.6%
- percentage inhibition of contracting effect of CCK-8 ([5]; 0.03 mg/kg i.v.): -62.1% and -57.0% and -59.2%
- block of gall bladder contractions induced by CCK-8 ([5]; 0.1 mg/kg): can block gall bladder contractions induced by CCK-8
- ED50 ([5]; Cavia porcellus, iv, CCK-8 10 ng/kg i.v., read-out: ED50 (inhibition of 50% of contracting effect of CCK-8)): 0.02 mg/kg
